Data as given in publication PMC6478789, “A chemical toolbox for the study of bromodomains and epigenetic signaling” (Nature Communications, 2019).
Read-outs that look alike come from different tables or passages of the source.

What was measured:
BAZ2A = target: T1, BAZ2A (Homo sapiens, UniProt Q9UIF9); experiment: BROMOscan ligand-binding assay
T1 sequence (Q9UIF9 1793-1897 limits assumed): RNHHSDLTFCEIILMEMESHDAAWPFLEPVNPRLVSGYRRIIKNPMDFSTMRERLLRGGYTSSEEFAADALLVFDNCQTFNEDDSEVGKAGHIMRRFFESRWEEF
Text: (§1) BROMOscan is a binding assay based on the well-known KINOMEscan technology. This assay measures the binding of a DNA-tagged bromodomain to an immobilized BRD ligand. If an inhibitor is present, it will compete with the bromodomain binding to the immobilized ligand, resulting in reduction of a quantitative PCR (qPCR) signal in a dose-dependent manner.

TRIM24(PHD,BRD) = target: T2, TRIM24(PHD,BRD) (Homo sapiens, UniProt O15164); experiment: BROMOscan ligand-binding assay
T2 sequence (O15164 824-1006 limits assumed): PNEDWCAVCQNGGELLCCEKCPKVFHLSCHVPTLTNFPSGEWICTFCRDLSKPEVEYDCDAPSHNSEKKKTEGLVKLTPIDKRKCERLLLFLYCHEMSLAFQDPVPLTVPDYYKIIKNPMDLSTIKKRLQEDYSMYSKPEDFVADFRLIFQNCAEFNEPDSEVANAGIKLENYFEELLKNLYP
Text: as §1

WDR9(2) = WDR9(2) (Homo sapiens, UniProt Q9NSI6); experiment: BROMOscan ligand-binding assay
Text: as §1

BRD2(2) = BRD2(2) (Homo sapiens, UniProt P25440); experiment: BROMOscan ligand-binding assay
Text: as §1

PBRM1(2) = PBRM1(2) (Homo sapiens, UniProt Q86U86); experiment: BROMOscan ligand-binding assay
Text: as §1

FALZ = FALZ (Homo sapiens, UniProt Q12830); experiment: BROMOscan ligand-binding assay
Text: as §1

TAF1L(2) = target: T3, TAF1L(2) (Homo sapiens, UniProt Q8IZX4); experiment: BROMOscan ligand-binding assay
T3 sequence (Q8IZX4 1517-1626 limits assumed): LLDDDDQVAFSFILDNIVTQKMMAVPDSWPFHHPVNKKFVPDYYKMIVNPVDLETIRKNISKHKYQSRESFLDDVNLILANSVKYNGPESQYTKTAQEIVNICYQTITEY
Text: as §1

BRD2(1) = BRD2(1) (Homo sapiens, UniProt P25440); experiment: BROMOscan ligand-binding assay
Text: as §1

BRD1 = target: T4, BRD1 (Homo sapiens, UniProt O95696); experiment: BROMOscan ligand-binding assay
T4 sequence (O95696 562-666 limits assumed): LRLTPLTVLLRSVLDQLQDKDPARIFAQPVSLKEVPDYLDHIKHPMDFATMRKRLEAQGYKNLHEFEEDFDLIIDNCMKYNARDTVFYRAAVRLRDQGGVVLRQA
Text: as §1

BRPF1 = BRPF1 (Homo sapiens, UniProt P55201); experiment: Temperature shift assay (non-BRD reader domains); format: binding; conditions: 10µM compound
MYST3 = MYST3 (Homo sapiens, UniProt Q92794); experiment: Histone acetyltransferase (HAT) activity assay; format: biochemical; conditions: read-out: HATs Activity (%);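 further: selectivity screen of bromodomain probe compounds across a panel of histone acetyltransferases, read out as enzyme activity in %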
HAT1 = target: T5, HAT1 (Homo sapiens, UniProt O14929); experiment: Histone acetyltransferase (HAT) activity assay; format: biochemical; conditions: read-out: HATs Activity (%);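 further: HAT selectivity screen of BRD probe compounds, enzyme activity in % measured with compound at 1 µM and 10 µM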
T5 sequence (O14929 1-419): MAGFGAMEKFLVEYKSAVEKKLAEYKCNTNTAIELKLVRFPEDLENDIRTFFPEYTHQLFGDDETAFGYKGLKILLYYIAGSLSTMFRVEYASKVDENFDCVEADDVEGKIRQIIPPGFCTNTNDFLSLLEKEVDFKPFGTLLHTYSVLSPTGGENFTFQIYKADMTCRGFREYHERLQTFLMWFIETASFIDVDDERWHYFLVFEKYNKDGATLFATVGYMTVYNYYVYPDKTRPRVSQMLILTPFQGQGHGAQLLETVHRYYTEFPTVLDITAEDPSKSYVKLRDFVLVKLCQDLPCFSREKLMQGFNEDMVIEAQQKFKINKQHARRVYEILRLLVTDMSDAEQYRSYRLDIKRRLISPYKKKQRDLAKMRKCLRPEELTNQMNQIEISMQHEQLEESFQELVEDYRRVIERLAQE

EP300 = EP300 (Homo sapiens, UniProt Q09472); experiment: Histone acetyltransferase (HAT) activity assay; format: biochemical; conditions: read-out: HATs Activity (%);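 further: selectivity screen of bromodomain probe compounds against histone acetyltransferases, with enzyme activity given in percent for compounds tested at 1 and 10 µM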
MYST1 = target: T6, MYST1 (Homo sapiens, UniProt Q9H7Z6); experiment: Histone acetyltransferase (HAT) activity assay; format: biochemical; conditions: read-out: HATs Activity (%);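 further: selectivity screen across a panel of histone acetyltransferases, with compounds tested at 1 and 10 µM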
T6 sequence (Q9H7Z6 1-458): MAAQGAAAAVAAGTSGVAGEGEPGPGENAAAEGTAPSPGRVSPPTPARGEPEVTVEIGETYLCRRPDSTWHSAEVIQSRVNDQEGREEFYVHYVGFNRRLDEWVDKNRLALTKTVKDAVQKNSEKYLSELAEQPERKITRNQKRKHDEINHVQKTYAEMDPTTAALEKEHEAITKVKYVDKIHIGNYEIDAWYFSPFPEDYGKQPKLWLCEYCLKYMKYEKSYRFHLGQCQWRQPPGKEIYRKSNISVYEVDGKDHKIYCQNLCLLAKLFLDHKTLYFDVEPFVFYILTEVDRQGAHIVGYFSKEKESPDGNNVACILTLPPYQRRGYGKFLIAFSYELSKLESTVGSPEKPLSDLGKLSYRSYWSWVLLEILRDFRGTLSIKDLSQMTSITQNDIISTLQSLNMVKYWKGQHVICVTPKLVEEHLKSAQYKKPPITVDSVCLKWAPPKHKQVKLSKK

GCN5L2 = GCN5L2 (Homo sapiens, UniProt Q92830); experiment: Histone acetyltransferase (HAT) activity assay; format: biochemical; conditions: read-out: HATs Activity (%);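 further: selectivity screen of BRD probe compounds across a panel of histone acetyltransferases, HAT activity in % with compound at 1 or 10 µM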
PBRM1(5) = PBRM1(5) (Homo sapiens, UniProt Q86U86); experiment: BROMOscan ligand-binding assay; conditions: PBRM1(5)
Text: as §1

BRD8(2) = BRD8(2) (Homo sapiens, UniProt Q9H0E9); experiment: BROMOscan ligand-binding assay; conditions: BRD8(2)
Sequence of BRD8(2) (Q9H0E9 1099-1207 limits assumed): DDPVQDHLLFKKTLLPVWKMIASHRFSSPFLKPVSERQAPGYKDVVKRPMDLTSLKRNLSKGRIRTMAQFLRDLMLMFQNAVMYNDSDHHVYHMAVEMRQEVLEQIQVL
Text: as §1

Sequence of BRPF1 (P55201 1085-1168 limits assumed, species assumed): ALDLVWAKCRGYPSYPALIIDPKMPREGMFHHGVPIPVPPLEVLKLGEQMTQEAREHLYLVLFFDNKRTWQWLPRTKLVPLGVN
Sequence of MYST3 (Q92794 whole entry, species assumed): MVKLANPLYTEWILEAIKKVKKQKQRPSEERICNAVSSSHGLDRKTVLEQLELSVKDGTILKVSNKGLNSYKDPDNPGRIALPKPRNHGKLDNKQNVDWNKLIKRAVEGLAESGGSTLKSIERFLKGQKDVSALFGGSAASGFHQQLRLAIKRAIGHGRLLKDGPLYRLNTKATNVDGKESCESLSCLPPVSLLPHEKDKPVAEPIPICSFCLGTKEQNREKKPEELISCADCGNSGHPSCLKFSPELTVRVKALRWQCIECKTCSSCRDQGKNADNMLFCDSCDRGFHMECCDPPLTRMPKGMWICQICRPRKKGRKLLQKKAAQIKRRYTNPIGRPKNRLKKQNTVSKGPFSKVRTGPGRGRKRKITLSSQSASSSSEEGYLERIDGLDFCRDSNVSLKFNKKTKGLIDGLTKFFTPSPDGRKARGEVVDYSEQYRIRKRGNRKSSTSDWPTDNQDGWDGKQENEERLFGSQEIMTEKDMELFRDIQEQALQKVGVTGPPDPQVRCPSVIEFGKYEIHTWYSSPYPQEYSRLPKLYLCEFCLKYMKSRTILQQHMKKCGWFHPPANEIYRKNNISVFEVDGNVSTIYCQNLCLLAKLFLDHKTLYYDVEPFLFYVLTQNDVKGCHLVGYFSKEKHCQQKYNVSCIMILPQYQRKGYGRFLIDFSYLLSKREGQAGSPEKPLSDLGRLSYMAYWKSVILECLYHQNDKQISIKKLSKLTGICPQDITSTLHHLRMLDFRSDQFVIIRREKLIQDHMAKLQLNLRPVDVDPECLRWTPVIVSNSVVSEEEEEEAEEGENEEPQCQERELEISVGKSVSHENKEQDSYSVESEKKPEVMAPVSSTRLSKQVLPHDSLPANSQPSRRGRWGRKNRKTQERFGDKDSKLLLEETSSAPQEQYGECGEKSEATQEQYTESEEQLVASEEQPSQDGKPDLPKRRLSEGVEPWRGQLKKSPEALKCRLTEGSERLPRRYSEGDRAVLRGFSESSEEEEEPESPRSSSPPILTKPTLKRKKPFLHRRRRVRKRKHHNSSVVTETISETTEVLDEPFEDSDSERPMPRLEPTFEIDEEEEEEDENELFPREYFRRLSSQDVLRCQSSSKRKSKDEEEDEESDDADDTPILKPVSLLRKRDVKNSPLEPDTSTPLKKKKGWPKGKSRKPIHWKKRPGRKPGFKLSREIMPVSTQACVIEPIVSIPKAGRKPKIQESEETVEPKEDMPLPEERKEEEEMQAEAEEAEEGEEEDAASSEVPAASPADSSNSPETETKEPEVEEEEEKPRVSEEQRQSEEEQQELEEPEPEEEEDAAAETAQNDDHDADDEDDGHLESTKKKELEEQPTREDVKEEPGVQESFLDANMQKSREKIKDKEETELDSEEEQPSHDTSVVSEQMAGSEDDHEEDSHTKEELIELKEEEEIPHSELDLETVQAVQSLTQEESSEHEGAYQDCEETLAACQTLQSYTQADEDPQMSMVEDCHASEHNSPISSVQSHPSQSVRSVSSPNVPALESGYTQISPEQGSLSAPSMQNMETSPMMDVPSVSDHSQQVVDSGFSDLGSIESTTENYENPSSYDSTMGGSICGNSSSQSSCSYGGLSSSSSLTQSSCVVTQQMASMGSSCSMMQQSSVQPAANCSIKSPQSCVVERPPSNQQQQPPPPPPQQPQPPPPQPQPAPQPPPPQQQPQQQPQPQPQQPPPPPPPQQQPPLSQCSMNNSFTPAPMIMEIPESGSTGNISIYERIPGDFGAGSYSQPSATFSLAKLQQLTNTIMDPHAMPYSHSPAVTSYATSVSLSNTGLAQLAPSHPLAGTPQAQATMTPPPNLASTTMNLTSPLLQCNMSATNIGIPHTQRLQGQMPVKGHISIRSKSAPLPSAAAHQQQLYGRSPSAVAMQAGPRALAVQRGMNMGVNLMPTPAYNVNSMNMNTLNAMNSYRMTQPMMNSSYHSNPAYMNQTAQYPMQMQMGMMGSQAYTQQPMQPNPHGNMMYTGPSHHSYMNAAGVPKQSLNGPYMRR
Sequence of EP300 (Q09472 whole entry, species assumed): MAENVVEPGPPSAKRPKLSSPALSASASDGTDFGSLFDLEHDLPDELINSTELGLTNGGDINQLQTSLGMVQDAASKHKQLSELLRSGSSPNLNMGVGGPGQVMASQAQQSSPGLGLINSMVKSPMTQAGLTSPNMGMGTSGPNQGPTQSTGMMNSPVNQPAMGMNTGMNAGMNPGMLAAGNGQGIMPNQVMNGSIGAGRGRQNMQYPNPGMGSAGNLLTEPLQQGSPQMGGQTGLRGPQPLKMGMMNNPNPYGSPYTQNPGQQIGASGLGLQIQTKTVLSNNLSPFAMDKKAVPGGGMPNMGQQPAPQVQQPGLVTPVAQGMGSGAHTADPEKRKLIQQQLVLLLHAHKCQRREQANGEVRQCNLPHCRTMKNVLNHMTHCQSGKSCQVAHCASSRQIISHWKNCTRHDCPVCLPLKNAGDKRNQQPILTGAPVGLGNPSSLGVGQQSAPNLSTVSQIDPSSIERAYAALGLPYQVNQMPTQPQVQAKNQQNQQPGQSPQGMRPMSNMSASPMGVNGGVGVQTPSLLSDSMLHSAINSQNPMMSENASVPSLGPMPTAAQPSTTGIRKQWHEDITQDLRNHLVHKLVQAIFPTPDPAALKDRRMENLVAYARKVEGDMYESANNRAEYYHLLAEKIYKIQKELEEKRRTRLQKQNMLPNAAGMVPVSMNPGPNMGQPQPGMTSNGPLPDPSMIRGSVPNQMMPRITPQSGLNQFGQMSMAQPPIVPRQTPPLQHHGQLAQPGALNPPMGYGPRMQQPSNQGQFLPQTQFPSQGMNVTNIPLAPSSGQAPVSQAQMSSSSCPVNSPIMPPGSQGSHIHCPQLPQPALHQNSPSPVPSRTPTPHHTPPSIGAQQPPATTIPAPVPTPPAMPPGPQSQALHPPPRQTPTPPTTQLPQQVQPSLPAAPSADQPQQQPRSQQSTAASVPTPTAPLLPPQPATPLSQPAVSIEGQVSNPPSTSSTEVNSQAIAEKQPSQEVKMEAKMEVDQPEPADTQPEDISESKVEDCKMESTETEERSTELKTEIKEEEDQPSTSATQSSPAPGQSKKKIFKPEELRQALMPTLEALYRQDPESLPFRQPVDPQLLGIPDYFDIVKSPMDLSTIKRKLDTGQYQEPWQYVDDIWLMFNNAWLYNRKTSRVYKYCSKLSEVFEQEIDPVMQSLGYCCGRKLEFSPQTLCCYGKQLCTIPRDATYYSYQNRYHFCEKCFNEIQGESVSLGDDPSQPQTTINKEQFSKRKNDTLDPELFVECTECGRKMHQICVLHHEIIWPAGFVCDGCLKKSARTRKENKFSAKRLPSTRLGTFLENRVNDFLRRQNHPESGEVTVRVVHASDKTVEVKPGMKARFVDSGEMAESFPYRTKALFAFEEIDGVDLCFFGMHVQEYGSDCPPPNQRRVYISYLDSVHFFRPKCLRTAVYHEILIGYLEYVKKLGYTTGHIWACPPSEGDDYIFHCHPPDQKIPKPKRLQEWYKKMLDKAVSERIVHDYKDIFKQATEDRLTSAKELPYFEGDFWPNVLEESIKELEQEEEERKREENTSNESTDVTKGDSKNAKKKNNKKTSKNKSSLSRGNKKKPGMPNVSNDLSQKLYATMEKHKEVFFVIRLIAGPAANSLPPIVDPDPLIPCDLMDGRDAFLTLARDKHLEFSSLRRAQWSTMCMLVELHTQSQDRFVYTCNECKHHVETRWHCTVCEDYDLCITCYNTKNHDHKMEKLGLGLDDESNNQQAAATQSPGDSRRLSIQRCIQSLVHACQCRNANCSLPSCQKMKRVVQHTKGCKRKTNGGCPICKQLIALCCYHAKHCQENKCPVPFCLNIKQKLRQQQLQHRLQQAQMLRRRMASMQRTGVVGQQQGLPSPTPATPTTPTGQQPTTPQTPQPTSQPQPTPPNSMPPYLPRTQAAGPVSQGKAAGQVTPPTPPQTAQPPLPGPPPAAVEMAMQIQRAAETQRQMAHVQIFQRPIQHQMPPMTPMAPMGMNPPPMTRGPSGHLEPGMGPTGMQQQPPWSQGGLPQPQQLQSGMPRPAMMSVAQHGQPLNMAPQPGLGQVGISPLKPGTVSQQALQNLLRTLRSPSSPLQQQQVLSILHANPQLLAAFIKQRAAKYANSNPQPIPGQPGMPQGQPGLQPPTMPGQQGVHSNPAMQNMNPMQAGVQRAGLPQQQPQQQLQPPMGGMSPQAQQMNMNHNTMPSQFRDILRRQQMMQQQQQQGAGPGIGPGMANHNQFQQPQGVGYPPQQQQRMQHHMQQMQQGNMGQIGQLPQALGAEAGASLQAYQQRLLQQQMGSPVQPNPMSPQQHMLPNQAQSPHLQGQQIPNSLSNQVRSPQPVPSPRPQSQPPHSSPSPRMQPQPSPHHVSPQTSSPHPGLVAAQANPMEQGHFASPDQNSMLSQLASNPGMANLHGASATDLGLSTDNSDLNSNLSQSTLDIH
Sequence of PBRM1(2) (Q86U86 177-287 limits assumed): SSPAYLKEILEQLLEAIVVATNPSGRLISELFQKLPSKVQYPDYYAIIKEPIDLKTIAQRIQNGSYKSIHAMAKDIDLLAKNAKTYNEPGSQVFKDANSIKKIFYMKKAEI
Sequence of WDR9(2) (Q9NSI6 1313-1418 limits assumed): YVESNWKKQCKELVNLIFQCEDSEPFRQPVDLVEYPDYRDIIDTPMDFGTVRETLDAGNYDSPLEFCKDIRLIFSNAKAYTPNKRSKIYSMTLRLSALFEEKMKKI
Sequence of BRD2(1) (P25440 74-180 limits assumed): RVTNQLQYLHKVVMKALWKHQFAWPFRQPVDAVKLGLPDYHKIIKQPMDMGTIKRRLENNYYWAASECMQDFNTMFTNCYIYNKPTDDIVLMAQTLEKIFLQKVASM
Sequence of BRD2(2) (P25440 344-453 limits assumed): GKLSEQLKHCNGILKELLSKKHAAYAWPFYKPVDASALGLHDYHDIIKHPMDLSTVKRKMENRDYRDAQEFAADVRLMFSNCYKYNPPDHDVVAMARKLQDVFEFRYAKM

SMILES | Tm (C) 10µM, temperature shift (BRPF1) [Kelvin] | activity at 1 µM (MYST3) [%] | activity at 10 µM (MYST3) [%] | activity at 1 µM (HAT1) [%] | activity at 10 µM (HAT1) [%] | activity at 1 µM (EP300) [%] | activity at 10 µM (EP300) [%] | activity at 1 µM (MYST1) [%] | activity at 10 µM (MYST1) [%] | activity at 1 µM (GCN5L2) [%] | activity at 10 µM (GCN5L2) [%] | further results
Cc1noc(C)c1-c1ccc2c(c1)nc(CCc1ccccc1)n2CCN1CCOCC1 [CBP30-298] |  |  |  |  |  |  |  |  |  |  |  | Kd (BAZ2A; BROMOscan Gene Symbol BAZ2A): 55 µM; Kd (TRIM24(PHD,BRD); BROMOscan Gene Symbol TRIM24(PHD,Bromo.)): 17 µM; Kd (WDR9(2); BROMOscan Gene Symbol WDR9(2)): 30 µM; Kd (BRD2(2); BROMOscan Gene Symbol BRD2(2)): 1.8 µM; Kd (PBRM1(2); BROMOscan Gene Symbol PBRM1(2)): 42 µM; Kd (FALZ; BROMOscan Gene Symbol FALZ): > 50000 nM; Kd (FALZ; read-out: KD (BROMOscan), sheet prints no unit (nM)): > 30000 nM; Kd (TAF1L(2); BROMOscan Gene Symbol TAF1L(2)): 17 µM; Kd (BRD2(1); BROMOscan Gene Symbol BRD2(1)): 0.78 µM; Kd (BRD1; BROMOscan Gene Symbol BRD1): 46 µM
Cc1cc2c(cc1N1C(=O)c3cccc4c(CCCO)ccc(c34)C1=O)n(C)c(=O)n2C [BAY-299] | -2.5 | 98 | 85 | 100 | 93 | 95 | 93 | 99 | 99 | 99 | 103 | 
CN1C[C@H](Nc2cnn(C)c(=O)c2Br)C[C@H](c2ccccc2)C1 [GSK4027] | -0.8 | 101 | 101 | 102 | 89 | 93 | 90 | 102 | 98 | 99 | 102 | 
COc1cc(C#N)ccc1S(=O)(=O)Nc1ccc2c(c1)cc(C)c(=O)n2C [NI 57] |  |  |  |  |  |  |  |  |  |  |  | Kd (PBRM1(5)): 11 µM; Kd (BAZ2A; BAZ2A): > 50 µM; Kd (TRIM24(PHD,BRD); TRIM24(PHD,Bromo.)): 5.6 µM; Kd (WDR9(2); WDR9(2)): > 50 µM; Kd (BRD2(2); BRD2(2)): > 50 µM; Kd (BRD8(2)): > 50 µM; Kd (PBRM1(2); PBRM1(2)): > 50 µM; Kd (FALZ; FALZ): 2300 nM; Kd (TAF1L(2); TAF1L(2)): 5.5 µM; Kd (BRD2(1); BRD2(1)): 5.9 µM; Kd (BRD1; BRD1): 0.046 µM
COc1cc(Cl)c(C(=O)N[C@@H](CN[C@H]2CC[C@@H](N)CC2)Cc2ccc(C#N)cc2)cc1-c1ccc(CN[C@H](C)c2ccc(C)cc2)o1 [BAY-850] | -2.2 | 96 | 97 | 101 | 101 | 98 | 87 | 93 | 94 | 99 | 102 | 
CN(C)CCCOc1ccc(-c2cc(NCCCn3cccn3)nc(S(C)(=O)=O)n2)cc1 [TP-238] | -0.3 | 97 | 99 | 93 | 100 | 99 | 95 | 99 | 97 | 96 | 92 | 
